Each block holds one compound with its values, some of them ahead of it. The source made the active and inactive calls. No cut-off for these calls is given here.
How the values were obtained:
[1] = Drug accumulation in rat at 100 to 900 mg/kg, po BID; assay type: ADME, organism-based; details: in vivo, dose 100-900 mg/kg
[2] = Protein binding in Beagle dog plasma; assay type: ADME, cell-free, Canis lupus familiaris; details: read-out: PPB
[3] = Half life in male cynomolgus monkey at 675 mg/kg, po measured on day 1; assay type: ADME, organism-based, Macaca fascicularis; details: in vivo
[4] = Tmax in male cynomolgus monkey at 150 mg/kg, po BID measured on day 8; assay type: ADME, organism-based, Macaca fascicularis; details: in vivo
[5] = Cmax in male cynomolgus monkey at 225 mg/kg, po measured on day 1; assay type: ADME, organism-based, Macaca fascicularis; parameters: route oral, dose 225 mg/kg; details: in vivo
[6] = Cmax in female cynomolgus monkey at 675 mg/kg, po measured on day 1; assay type: ADME, organism-based, Macaca fascicularis; parameters: route oral, dose 675 mg/kg; details: in vivo
[7] = AUC (0 to 24 hrs) in male cynomolgus monkey at 150 mg/kg, po BID measured on day 8; assay type: ADME, organism-based, Macaca fascicularis; parameters: time < 24 hr, route oral, dose 150 mg/kg; details: in vivo
[8] = AUC (0 to 24 hrs) in female cynomolgus monkey at 675 mg/kg, po measured on day 1; assay type: ADME, organism-based, Macaca fascicularis; parameters: time < 24 hr, route oral, dose 675 mg/kg; details: in vivo
[9] = AUC (0 to 24 hrs) in male cynomolgus monkey at 675 mg/kg, po measured on day 1; assay type: ADME, organism-based, Macaca fascicularis; parameters: time < 24 hr, route oral, dose 675 mg/kg; details: in vivo
[10] = Cmax in male cynomolgus monkey at 150 mg/kg, po BID measured on day 8; assay type: ADME, organism-based, Macaca fascicularis; parameters: route oral, dose 150 mg/kg; details: in vivo
[11] = Half life in female cynomolgus monkey at 675 mg/kg, po measured on day 1; assay type: ADME, organism-based, Macaca fascicularis; details: in vivo
[12] = AUC (0 to 24 hrs) in male cynomolgus monkey at 225 mg/kg, po measured on day 1; assay type: ADME, organism-based, Macaca fascicularis; parameters: time < 24 hr, route oral, dose 225 mg/kg; details: in vivo, 24 h
[13] = Protein binding in human plasma; assay type: ADME, cell-free; details: read-out: PPB
[14] = Tmax in female cynomolgus monkey at 375 mg/kg, po BID measured on day 8; assay type: ADME, organism-based, Macaca fascicularis; details: in vivo
[15] = Drug accumulation in monkey at 75 to 375 mg/kg, po BID; assay type: ADME, organism-based, Macaca mulatta; details: rhesus monkey, in vivo, dose 75-375 mg/kg
[16] = Tmax in female cynomolgus monkey at 675 mg/kg, po measured on day 1; assay type: ADME, organism-based, Macaca fascicularis; details: in vivo
[17] = Tmax in male cynomolgus monkey at 675 mg/kg, po measured on day 1; assay type: ADME, organism-based, Macaca fascicularis; details: in vivo
[18] = Cmax in male cynomolgus monkey at 675 mg/kg, po measured on day 1; assay type: ADME, organism-based, Macaca fascicularis; parameters: route oral, dose 675 mg/kg; details: in vivo
[19] = AUC (0 to 24 hrs) in female cynomolgus monkey at 375 mg/kg, po BID measured on day 8; assay type: ADME, organism-based, Macaca fascicularis; parameters: time < 24 hr, route oral, dose 375 mg/kg; details: in vivo
[20] = Cmax in female cynomolgus monkey at 375 mg/kg, po BID measured on day 8; assay type: ADME, organism-based, Macaca fascicularis; parameters: route oral, dose 375 mg/kg; details: in vivo
[21] = Tmax in male cynomolgus monkey at 225 mg/kg, po measured on day 1; assay type: ADME, organism-based, Macaca fascicularis; details: in vivo
[22] = Change in Cmax in rat at 185 umol/kg, po measured upto 72 hrs by LC-MS/MS analysis; assay type: ADME, organism-based; details: in vivo, at 185 µmol/kg
[23] = Change in Cmax in rat at 37 umol/kg, po measured upto 72 hrs by LC-MS/MS analysis; assay type: ADME, organism-based; details: in vivo, at 37 µmol/kg
[24] = Change in AUC (infinity) in rat at 37 umol/kg, po measured upto 72 hrs by LC-MS/MS analysis; assay type: ADME, organism-based; details: in vivo, at 37 µmol/kg
B16-F10 = assay: Antitumor activity against mouse B16-F10 cells implanted in C57BL/6 mouse assessed as reduction in tumor size at >= 287 micromol/kg, po BID administered from day 6 to day 11 and measured on day 11 by caliper method; assay type: functional, organism-based; details: dose micromol/kg >=287
[25] = Change in Cmax in rat at 500 umol/kg, po measured upto 72 hrs by LC-MS/MS analysis; assay type: ADME, organism-based; details: in vivo, at 500 µmol/kg
[26] = Change in Cmax in cynomolgus monkey at 92 umol/kg, po measured after 0.083 to 48 hrs by LC-MS/MS analysis; assay type: ADME, organism-based, Macaca fascicularis; details: in vivo, at 92 µmol/kg, time 0.083-48 hrs
[27] = Change in Cmax in cynomolgus monkey at 275 umol/kg, po measured after 0.083 to 48 hrs by LC-MS/MS analysis; assay type: ADME, organism-based, Macaca fascicularis; details: in vivo, at 275 µmol/kg, time 0.083-48 hrs
[28] = Change in Cmax in cynomolgus monkey at 825 umol/kg, po measured after 0.083 to 48 hrs by LC-MS/MS analysis; assay type: ADME, organism-based, Macaca fascicularis; details: in vivo, at 825 µmol/kg, time 0.083-48 hrs
[29] = Change in AUC(infinity) in rat at 500 umol/kg, po measured upto 72 hrs by LC-MS/MS analysis; assay type: ADME, organism-based; details: in vivo, at 500 µmol/kg
[30] = Change in AUC(infinity) in cynomolgus monkey at 825 umol/kg, po measured after 0.083 to 48 hrs by LC-MS/MS analysis; assay type: ADME, organism-based, Macaca fascicularis; details: in vivo, at 825 µmol/kg, time 0.083-48 hrs
[31] = Change in AUC(infinity) in cynomolgus monkey at 275 umol/kg, po measured after 0.083 to 48 hrs by LC-MS/MS analysis; assay type: ADME, organism-based, Macaca fascicularis; details: in vivo, at 275 µmol/kg, time 0.083-48 hrs
[32] = Change in AUC(infinity) in cynomolgus monkey at 92 umol/kg, po measured after 0.083 to 48 hrs by LC-MS/MS analysis; assay type: ADME, organism-based, Macaca fascicularis; details: in vivo, at 92 µmol/kg, time 0.083-48 hrs
[33] = Chemical stability of compound in saline assessed as compound remaining at 5 uM measured after 24 hrs by LC-MS/MS analysis; assay type: physicochemical; details: read-out: Stabilty
[34] = Chemical stability of compound in simulated gastric fluid assessed as compound remaining at 5 uM measured after 1.5 hrs by LC-MS/MS analysis; assay type: ADME, physicochemical; details: read-out: Stabilty
[35] = Stability in rat plasma assessed as parent compound remaining measured after 2 hrs by LC-MS/MS analysis; assay type: ADME, cell-free; details: read-out: Stabilty
[36] = Change in normalised Cmax in rat at 50 mg/kg, po measured upto 72 hrs by LC-MS/MS analysis; assay type: ADME, organism-based; details: in vivo
[37] = Change in normalised AUCinfinity in rat at 10 mg/kg, po measured upto 72 hrs by LC-MS/MS analysis; assay type: ADME, organism-based; details: in vivo
[38] = Chemical stability of compound in 0.1 N aqueous HCl buffer assessed as compound remaining at pH 1 at 5 uM measured after 1.5 hrs by LC-MS/MS analysis; assay type: physicochemical; details: pH 1, 1.5 h
[39] = Change in normalised AUC (infinity) in rat at 50 mg/kg, po measured upto 72 hrs by LC-MS/MS analysis; assay type: ADME, organism-based; details: in vivo
[40] = Change in normalised Cmax in rat at 10 mg/kg, po measured upto 72 hrs by LC-MS/MS analysis; assay type: ADME, organism-based; details: in vivo
[41] = Dose normalized AUC (0 to infinity) in rat at 10 mg/kg, po measured upto 72 hrs by LC-MS/MS analysis; assay type: ADME, organism-based; details: in vivo
[42] = Chemical stability of compound in simulated intestinal fluid assessed as compound remaining at 5 uM measured after 24 hrs by LC-MS/MS analysis; assay type: ADME, physicochemical; details: read-out: Stabilty
[43] = Chemical stability of compound in simulated intestinal fluid assessed as compound remaining at 5 uM measured after 3 hrs by LC-MS/MS analysis; assay type: ADME, physicochemical; details: read-out: Stabilty
[44] = Stability in mouse plasma assessed as parent compound remaining measured after 2 hrs by LC-MS/MS analysis; assay type: ADME, cell-free; details: read-out: Stabilty
[45] = Chemical stability of compound in simulated gastric fluid assessed as compound remaining at 5 uM measured after 24 hrs by LC-MS/MS analysis; assay type: ADME, physicochemical; details: read-out: Stabilty
[46] = Dose normalized AUC (0 to infinity) in rat at 50 mg/kg, po measured upto 72 hrs by LC-MS/MS analysis; assay type: ADME, organism-based; details: in vivo
[47] = Stability in human plasma assessed as parent compound remaining measured after 24 hrs by LC-MS/MS analysis; assay type: ADME, cell-free; details: read-out: Stabilty
[48] = Chemical stability of compound in 0.1 N aqueous HCl buffer assessed as compound remaining at pH 1 at 5 uM measured after 24 hrs by LC-MS/MS analysis; assay type: physicochemical; details: pH 1, 24 h
[49] = Chemical stability of compound in PBS buffer assessed as compound remaining at pH 7.4 at 5 uM measured after 6 hrs by LC-MS/MS analysis; assay type: physicochemical; details: read-out: Stabilty
[50] = Dose normalized Cmax in rat at 50 mg/kg, po measured upto 72 hrs by LC-MS/MS analysis; assay type: ADME, organism-based; details: in vivo
[51] = Dose normalized Cmax in rat at 10 mg/kg, po measured upto 72 hrs by LC-MS/MS analysis; assay type: ADME, organism-based; details: in vivo
[52] = Chemical stability of compound in PBS buffer assessed as compound remaining at pH 7.4 at 5 uM measured after 24 hrs by LC-MS/MS analysis; assay type: physicochemical; details: read-out: Stabilty
[53] = Stability in human plasma assessed as parent compound remaining measured after 6 hrs by LC-MS/MS analysis; assay type: ADME, cell-free; details: read-out: Stabilty

- Drug metabolism [1]: Metabolite_Notdetected
- fraction unbound [2]: > 0.5
- half-life [3]: 3.7 h
- Tmax [4]: 1 h
- Cmax [5]: 353 nM
- Cmax [6]: 1580 nM
- AUC at 24 h [7]: 0.0806 µM·h
- AUC [8]: 3.61 µM·h
- AUC [9]: 2.88 µM·h
- Cmax [10]: 192 nM
- half-life [11]: 8.2 h
- AUC [12]: 0.858 µM·h
- fraction unbound [13]: > 0.5
- Tmax [14]: 2 h
- Drug metabolism [15]: Metabolite_Notdetected
- Tmax [16]: 1.5 h
- Tmax [17]: 1 h
- Cmax [18]: 1760 nM
- AUC at 24 h [19]: 0.703 µM·h
- Cmax [20]: 308 nM
- Tmax [21]: 2 h
Structure (SMILES): CC(C)C[C@H](N)C(=O)N[C@H](Cc1cn(C)c2ccccc12)C(=O)O

- Activity [22]: 49%
- Activity [23]: 32%
- Activity [24]: 2%
Structure (SMILES): CCOC(=O)[C@@H](Cc1cn(C)c2ccccc12)NC(=O)[C@@H](N)CCSC.O=P(O)(O)O

- Activity [22]: 153%
- Activity [23]: 37%
- Activity [24]: 46%
Structure (SMILES): Cn1cc(C[C@@H](N)C(=O)OCC(O)CO)c2ccccc21.O=P(O)(O)O (stereo not given in full)

Structure (SMILES): CCOC(=O)[C@@H](Cc1cn(C)c2ccccc12)NC(=O)[C@@H](N)CC(C)C
- Activity (B16-F10): Active

Structure (SMILES): CCOC(=O)[C@@H](Cc1cn(C)c2ccccc12)NC(=O)[C@@H](N)CC(C)C.O=P(O)(O)O
- Activity [22]: 69%
- Activity [23]: 84%
- Activity [24]: 61%

- Activity [25]: 59%
- Activity [26]: 305%
- Activity [27]: 402%
- Activity [22]: 152%
- Activity [28]: 411%
- Activity [23]: 21%
- Activity [24]: 13%
- Activity [29]: 49%
- Activity [30]: 369%
- Activity [31]: 393%
- Activity [32]: 136%
Structure (SMILES): CCOC(=O)[C@@H](Cc1cn(C)c2ccccc12)NC(=O)[C@@H](N)CCSC.Cl

- remaining at 24 h, 5 µM [33]: 100%
- remaining at 1.5 h, 5 µM [34]: 83%
- remaining at 2 h [35]: 0%
- Activity [36]: 143%
- Activity [37]: -11%
- Stabilty [38]: 59%
- Activity [39]: 126%
- Activity [40]: 27%
- AUC/dose [41]: 454 µM·h
- remaining at 24 h, 5 µM [42]: 0%
- remaining at 3 h, 5 µM [43]: 64%
- remaining at 2 h [44]: 0%
- remaining at 24 h, 5 µM [45]: 85%
- AUC/dose [46]: 2988 µM·h
- remaining at 24 h [47]: 35%
- Stabilty [48]: 100%
- remaining at 6 h, 5 µM [49]: 94%
- Cmax/dose [50]: 66000 nM
- Cmax/dose [51]: 22000 nM
- remaining at 24 h, 5 µM [52]: 52%
- remaining at 6 h [53]: 93%
Structure (SMILES): CCOC(=O)[C@H](N)Cc1cn(C)c2ccccc12.Cl

- remaining at 2 h [35]: 0%
- Activity [36]: 4%
- Activity [39]: -21%
- remaining at 2 h [44]: 0%
- AUC/dose [46]: 1051 µM·h
- Cmax/dose [50]: 28000 nM
Structure (SMILES): CC(C)OC(=O)[C@H](N)Cc1cn(C)c2ccccc12.Cl

- remaining at 2 h [35]: 0%
- Activity [36]: 4%
- Activity [39]: -22%
- remaining at 2 h [44]: 0%
- AUC/dose [46]: 1028 µM·h
- Cmax/dose [50]: 28000 nM
Structure (SMILES): Cl.Cn1cc(C[C@@H](N)C(=O)OCc2ccccc2)c2ccccc21

Source: ChEMBL document CHEMBL4837181 (Eur J Med Chem, 2020)
